From patent publication US12448388B2, “PRMT5 inhibitors and uses thereof” (Gilead Sciences, Inc., priority 2023, dated 2025) come the findings set out here.

Experiment [1] concerns HCT116 MTAP-deleted cell lines. In words: Cell viability assay (CellTiter-Glo, 7 days), HCT116 MTAP-deleted. Conditions: Homo sapiens, HCT-116, HCT116 MTAP-deleted, class symbols, read-out: CC50. The experiment is classed as cell-based. In outline: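 HCT116 MTAP-deleted and wild-type cells exposed to serially diluted compound for 7 days at 37 °C, 5% CO2. Viability read by CellTiter-Glo luminescence; CC50 derived per line, with selectivity comparing WT to MTAP-deleted, limited solubility can inflate values marked *.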
(ATP-based viability assays read luminescence as a measure of living cells.)

The test system of experiment [2] is Symmetric Di-methyl Arginine (SDMA) signal (PRMT5 inhibition) in HCT116 MTAP-deleted cells. The experiment is described as follows: Symmetric di-methyl arginine image-based high content screen assay (SDMA assay), HCT116 MTAP-deleted. The experiment is classed as cell-based. Conditions: for EC50: Homo sapiens, HCT-116, HCT116 MTAP-deleted, class symbols. In outline:
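HCT116 WT and MTAP-deleted cells (800/well, RPMI 1640 + 10% FBS) treated with compound 3 days at 37 °C; formalin-fixed, stained with anti-SDMA antibody/Alexa 488 plus DAPI. Mean SDMA intensity per DAPI-defined cell imaged; EC50 from 4-parameter logistic fit.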

Setting [3] is: HCT116 WT versus HCT116 MTAP-deleted.
[4] abbreviates: HCT116 WT vs HCT116 MTAP-deleted.

Where two headings read alike, the source gives them in different places.

On to `CN(C(=O)c1cc2c(cc1F)nc(N)c1cncn12)[C@@H]1CC2(CC2)c2cc(C(F)(F)F)ccc21` [Ff-58, (R)-4-amino-7-fluoro-N-methyl-N-(6′-(trifluoromethyl)-2′,3′-dihydrospiro[cyclopropane-1,1′-inden]-3′-yl)imidazo[1,5-a]quinoxaline-8-carboxamide], for which, in experiment [1] (cell viability), the CC50 is less than 100 nM. This molecule yielded an EC50 selectivity in experiment [2] (setting [3]) of 166. In addition, the EC50 in experiment [2] lay in the range of 1 to 5 nM.

Consider `Cc1ncc2c(N)nc3cc(F)c(C(=O)N(C)[C@@H]4COc5cc(C(F)(F)F)ccc54)cc3n12` [Ff-59, (S)-4-amino-7-fluoro-N,1-dimethyl-N-(6-(trifluoromethyl)-2,3-dihydrobenzofuran-3-yl)imidazo[1,5-a]quinoxaline-8-carboxamide], for which the CC50 in experiment [1] (cell viability) was less than 100 nM. For the same molecule, the EC50 selectivity in experiment [2] (setting [3]) is given as 65. For the same molecule, the half-maximal effective concentration (EC50) in experiment [2] lay within 1 to 5 nM.

With `Cc1ncc2c(N)nc3ccc(C(=O)N4CCC5(CC4)CC(=O)c4ccccc4O5)cc3n12` [Ff-60, 1′-(4-amino-1-methylimidazo[1,5-a]quinoxaline-8-carbonyl)spiro[chromane-2,4′-piperidin]-4-one], the half-maximal cytotoxic concentration (CC50) in experiment [1] (cell viability) lay within 100 to 1000 nM. The same molecule came in with an EC50 selectivity in experiment [2] (setting [3]) of 371. The EC50 in experiment [2] is more than 5 nM.

As to `Nc1nc2cc(F)c(C(=O)N3CC4CC(C3)c3ccccc34)cc2n2cncc12` [Ff-62, (4-amino-7-fluoroimidazo[1,5-a]quinoxalin-8-yl)(1,2,4,5-tetrahydro-3H-1,5-methanobenzo[d]azepin-3-yl)methanone], the cytotoxic concentration (CC50) in experiment [1] (cell viability) is more than 1000 nM. This molecule had an EC50 selectivity in experiment [2] (setting [3]) of 178. Further, in experiment [2], the EC50 is more than 5 nM.

In the case of `C[C@H]1CN(C(=O)c2cc3c(cc2Cl)nc(N)c2cncn23)[C@@H](c2ccc(C(F)(F)F)cn2)CO1` [Ff-138, (4-amino-7-chloroimidazo[1,5-a]quinoxalin-8-yl)((2S,5S)-2-methyl-5-(5-(trifluoromethyl)pyridin-2-yl)morpholino)methanone], in experiment [1] (cell viability), the half-maximal cytotoxic concentration (CC50) was less than 100 nM. This molecule also displayed an EC50 selectivity in experiment [2] (setting [3]) of 20. In experiment [2], this molecule had an EC50 not above 1 nM.

Regarding `CN(C(=O)c1cc2c(cc1F)nc(N)c1cncn12)[C@@H]1COc2cc(N3CCOCC3)ccc21` [Ff-144, (S)-4-amino-7-fluoro-N-methyl-N-(6-morpholino-2,3-dihydrobenzofuran-3-yl)imidazo[1,5-a]quinoxaline-8-carboxamide], in experiment [1] (cell viability), the CC50 was less than 100 nM. This molecule also gave an EC50 selectivity in experiment [2] (setting [3]) of 157. Besides, the EC50 in experiment [2] was in the range of 1 to 5 nM.

On to `C[C@H]1CN(C(=O)c2cc3c(cc2F)nc(N)c2cncn23)[C@H]2c3cc(F)c(Br)cc3C[C@H]2O1` [Ff-165, (4-amino-7-fluoroimidazo[1,5-a]quinoxalin-8-yl)((2S,4aS,9aR)-7-bromo-6-fluoro-2-methyl-2,3,9,9a-tetrahydroindeno[2,1-b][1,4]oxazin-4(4aH)-yl)methanone], for which the half-maximal cytotoxic concentration (CC50) in experiment [1] (cell viability) is less than 100 nM. This molecule also came in with an EC50 selectivity in experiment [2] (setting [3]) of 43. Besides, the concentration giving a half-maximal response (EC50) in experiment [2] is not above 1 nM.

As to `Nc1nc2cc(F)c(C(=O)N3CCO[C@@H]4Cc5cc(C(F)F)ccc5[C@@H]43)cc2n2cncc12` [Ff-167, (4-amino-7-fluoroimidazo[1,5-a]quinoxalin-8-yl)((4aS,9aR)-7-(difluoromethyl)-2,3,9,9a-tetrahydroindeno[2,1-b][1,4]oxazin-4(4aH)-yl)methanone], the CC50 in experiment [1] (cell viability) is less than 100 nM. For the same molecule, the EC50 selectivity in experiment [2] (setting [3]) came out at 44. The EC50 in experiment [2] lay in the range of 1 to 5 nM.

Take `C[C@H]1CN(C(=O)c2cc3c(cc2F)nc(N)c2cncn23)[C@H]2c3cc(F)c(C4CC4)cc3C[C@H]2O1` [Ff-201, (4-amino-7-fluoroimidazo[1,5-a]quinoxalin-8-yl)((2S,4aS,9aR)-7-cyclopropyl-6-fluoro-2-methyl-2,3,9,9a-tetrahydroindeno[2,1-b][1,4]oxazin-4(4aH)-yl)methanone]: the half-maximal cytotoxic concentration (CC50) in experiment [1] (cell viability) was less than 100 nM. Further, the EC50 selectivity in experiment [2] (setting [3]) is given as 58. Besides, the EC50 in experiment [2] lay within 1 to 5 nM.

In the case of `Nc1nc2cc(F)c(C(=O)N(Cc3ccc(C(F)(F)F)cc3F)C34CC(C3)C4)cc2n2cncc12` [Ff-210, 4-amino-N-(bicyclo[1.1.1]pentan-1-yl)-7-fluoro-N-(2-fluoro-4-(trifluoromethyl)benzyl)imidazo[1,5-a]quinoxaline-8-carboxamide], in experiment [1] (cell viability), the CC50 was less than 100 nM. In addition, the EC50 selectivity in experiment [2] (setting [3]) is 45. In experiment [2], the half-maximal effective concentration (EC50) was not above 1 nM.

Turning to `CN(C(=O)c1cc2c(cc1F)nc(N)c1cncn12)[C@@H]1COc2cc(-c3cnn(C(F)F)c3)ccc21` [Ff-213, (S)-4-amino-N-(6-(1-(difluoromethyl)-1H-pyrazol-4-yl)-2,3-dihydrobenzofuran-3-yl)-7-fluoro-N-methylimidazo[1,5-a]quinoxaline-8-carboxamide], the CC50 in experiment [1] (cell viability) is less than 100 nM. The EC50 selectivity in experiment [2] (setting [3]) is 153. In addition, in experiment [2], the EC50 fell in the range of 1 to 5 nM.

`CN(C(=O)c1cc2c(cc1F)nc(N)c1cncn12)[C@@H]1COc2cc(-c3cnn(C4CC4)c3)ccc21` [Ff-215, (S)-4-amino-N-(6-(1-cyclopropyl-1H-pyrazol-4-yl)-2,3-dihydrobenzofuran-3-yl)-7-fluoro-N-methylimidazo[1,5-a]quinoxaline-8-carboxamide]: the CC50 in experiment [1] (cell viability) was less than 100 nM. The molecule further displayed an EC50 selectivity in experiment [2] (setting [3]) of 224. In addition, the half-maximal effective concentration (EC50) in experiment [2] was in the range of 1 to 5 nM.

For `Cn1cc(N(Cc2ccc(C(F)(F)F)cc2F)C(=O)c2ccc3nc(N)c4cncn4c3c2)cn1` [Ff-278, 4-amino-N-(2-fluoro-4-(trifluoromethyl)benzyl)-N-(1-methyl-1H-pyrazol-4-yl)imidazo[1,5-a]quinoxaline-8-carboxamide], in experiment [1] (cell viability), the half-maximal cytotoxic concentration (CC50) was less than 100 nM. Moreover, in experiment [2] (setting [3]), the EC50 selectivity is 47. Further, in experiment [2], the EC50 is 1 to 5 nM.

`CN(C(=O)c1cc2c(cc1F)nc(N)c1cncn12)[C@@H]1COCc2cc(-c3cnn(C(F)(F)F)c3)ccc21` [Ff-279, (S)-4-amino-7-fluoro-N-methyl-N-(7-(1-(trifluoromethyl)-1H-pyrazol-4-yl)isochroman-4-yl)imidazo[1,5-a]quinoxaline-8-carboxamide]: the half-maximal cytotoxic concentration (CC50) in experiment [1] (cell viability) was less than 100 nM. Besides, the EC50 selectivity in experiment [2] (setting [3]) is on record as 60. Besides, the EC50 in experiment [2] is not above 1 nM.

As for `CN(C(=O)c1cc2c(cc1F)nc(N)c1cncn12)[C@@H]1COCc2cc(-c3ccn(C(F)(F)F)n3)ccc21` [Ff-280, (S)-4-amino-7-fluoro-N-methyl-N-(7-(1-(trifluoromethyl)-1H-pyrazol-3-yl)isochroman-4-yl)imidazo[1,5-a]quinoxaline-8-carboxamide], in experiment [1] (cell viability), the CC50 was less than 100 nM. Moreover, the EC50 selectivity in experiment [2] (setting [3]) was 118. Besides, in experiment [2], the EC50 was 1 to 5 nM.

Regarding `Nc1nc2cc(Cl)c(C(=O)N3CCOC[C@@H]3c3ccc(C(F)(F)F)cc3)cc2n2cncc12` [Ff-289, (S)-(4-amino-7-chloroimidazo[1,5-a]quinoxalin-8-yl)(3-(4-(trifluoromethyl)phenyl)morpholino)methanone], the CC50 in experiment [1] (cell viability) was less than 100 nM. This molecule also registered an EC50 selectivity in experiment [2] (setting [3]) of 88. In experiment [2], this molecule had an EC50 not above 1 nM.

Turning to `Cc1ncc2c(N)nc3cc(F)c(C(=O)N(C)[C@@H]4COCc5nc(C(F)(F)F)ccc54)cc3n12` [Ff-304, (S)-4-amino-7-fluoro-N,1-dimethyl-N-(2-(trifluoromethyl)-5,8-dihydro-6H-pyrano[3,4-b]pyridin-5-yl)imidazo[1,5-a]quinoxaline-8-carboxamide], the cytotoxic concentration (CC50) in experiment [1] (cell viability) is less than 100 nM. The same molecule yielded an EC50 selectivity in experiment [2] (setting [3]) of 127. This molecule came in with an EC50 in experiment [2] of 1 to 5 nM.

As for `CN(C(=O)c1cc2c(cc1F)nc(N)c1cncn12)[C@@H]1COc2cc(-n3cnc(C(F)(F)F)n3)ccc21` [Ff-324, (S)-4-amino-7-fluoro-N-methyl-N-(6-(3-(trifluoromethyl)-1H-1,2,4-triazol-1-yl)-2,3-dihydrobenzofuran-3-yl)imidazo[1,5-a]quinoxaline-8-carboxamide], the CC50 in experiment [1] (cell viability) is less than 100 nM. For the same molecule, the EC50 selectivity in experiment [2] (setting [3]) was 53. In addition, in experiment [2], the half-maximal effective concentration (EC50) was in the range of 1 to 5 nM.

In the case of `CN(C(=O)c1cc2c(cc1F)nc(N)c1cncn12)[C@@H]1COc2cc(-n3cnc(C(F)(F)F)c3)ccc21` [Ff-325, (S)-4-amino-7-fluoro-N-methyl-N-(6-(4-(trifluoromethyl)-1H-imidazol-1-yl)-2,3-dihydrobenzofuran-3-yl)imidazo[1,5-a]quinoxaline-8-carboxamide], the cytotoxic concentration (CC50) in experiment [1] (cell viability) was less than 100 nM. The EC50 selectivity in experiment [2] (setting [3]) is 447. In experiment [2], this molecule showed an EC50 not above 1 nM.

Regarding `Nc1nc2cnc(C(=O)N3CCC[C@@H]4Oc5cc(OC(F)(F)F)c(F)cc5[C@@H]43)cc2n2cncc12` [Ff-378, (4-aminoimidazo[1,5-a]pyrido[3,4-e]pyrazin-8-yl)((4aS,9bS)-8-fluoro-7-(trifluoromethoxy)-3,4,4a,9b-tetrahydrobenzofuro[3,2-b]pyridin-1(2H)-yl)methanone], in experiment [1] (cell viability assay), the CC50 is less than 100 nM. The same molecule yielded an EC50 selectivity in experiment [2] (setting [4]) of 106. The concentration giving a half-maximal response (EC50) in experiment [2] was not above 1 nM.

On to `Nc1nc2ccc(C(=O)N(CC3CC3)[C@@H]3COc4cc(C(F)(F)F)ccc43)cc2n2cncc12` [Ff-407, (S)-4-amino-N-(cyclopropylmethyl)-N-[(3S)-6-(trifluoromethyl)-2,3-dihydrobenzofuran-3-yl]imidazo[1,5-a]quinoxaline-8-carboxamide], for which the cytotoxic concentration (CC50) in experiment [1] (cell viability assay) is less than 100 nM. In addition, in experiment [2] (setting [4]), the EC50 selectivity turned out to be 65. Further, the EC50 in experiment [2] is not above 1 nM.

`Nc1nc2ccc(C(=O)N(Cc3ccc(C(F)(F)F)cc3F)C3COC3)cc2n2cncc12` [Ff-410, 4-amino-N-[[2-fluoro-4-(trifluoromethyl)phenyl]methyl]-N-(oxetan-3-yl)imidazo[1,5-a]quinoxaline-8-carboxamide]: the CC50 in experiment [1] (cell viability assay) fell in the range of 100 to 1000 nM. Moreover, the EC50 selectivity in experiment [2] (setting [4]) is 453. This molecule came in with an EC50 in experiment [2] of more than 5 nM.

One may read the CC50 as the concentration that lowers cell viability or growth by half. What is called EC50 is the midpoint of the concentration-response curve. Read a low EC50 as a more potent agent.
